{"source": "ChEMBL document CHEMBL1155666", "about": "“Zygosporin D and two new cytochalasins produced by the fungus Metarrhizium anisopliae” (2000)", "key": {"Oryza sativa [1]": {"tested_on": "Oryza sativa", "experiment": "Growth retardation of rice seedlings assessed as second leaf sheath length at 1 nmol after 72 hrs exposure to continuous fluorescent light relative to control", "format": "functional"}, "Oryza sativa [2]": {"tested_on": "Oryza sativa", "experiment": "Growth retardation of rice seedlings assessed as reduction in second leaf sheath length at 1 nmol after 72 hrs exposure to continuous fluorescent light relative to water", "format": "functional", "design": "scale not given: the % may be the effect or the level left"}}}
{"smiles": "CC1=C(C)[C@H]2[C@H](Cc3ccccc3)NC(=O)[C@]23[C@H](O)/C=C/[C@@](C)(O)C(=O)[C@@H](C)C/C=C/[C@H]3[C@@H]1O", "note": "[DEACETYLCYTOCHALASIN C]", "values": [{"measurement": "Activity", "setting": "Oryza sativa [1]", "result": 83, "unit": "%"}]}
{"smiles": "C[C@H]1[C@H]2[C@H](Cc3ccccc3)NC(=O)[C@]23[C@H](O)/C=C/[C@@](C)(O)C(=O)[C@@H](C)C/C=C/[C@H]3C(=O)[C@@H]1C", "values": [{"measurement": "Activity", "setting": "Oryza sativa [1]", "result": 94, "unit": "%"}]}
{"smiles": "C=C1[C@@H](C)[C@H]2[C@H](Cc3ccccc3)NC(=O)[C@]23[C@H](O)/C=C/[C@@](C)(O)C(=O)[C@@H](C)C/C=C/[C@H]3[C@@H]1O", "note": "[ZYGOSPORIN D]", "values": [{"measurement": "Activity", "setting": "Oryza sativa [2]", "result": 41, "unit": "%"}]}
